One block for each compound: values may come before it.
Columns and labels:
FAAH [1] = target: T1, FAAH (Rattus norvegicus, UniProt P97612); conditions: cited from earlier work
T1 sequence (P97612 1-579): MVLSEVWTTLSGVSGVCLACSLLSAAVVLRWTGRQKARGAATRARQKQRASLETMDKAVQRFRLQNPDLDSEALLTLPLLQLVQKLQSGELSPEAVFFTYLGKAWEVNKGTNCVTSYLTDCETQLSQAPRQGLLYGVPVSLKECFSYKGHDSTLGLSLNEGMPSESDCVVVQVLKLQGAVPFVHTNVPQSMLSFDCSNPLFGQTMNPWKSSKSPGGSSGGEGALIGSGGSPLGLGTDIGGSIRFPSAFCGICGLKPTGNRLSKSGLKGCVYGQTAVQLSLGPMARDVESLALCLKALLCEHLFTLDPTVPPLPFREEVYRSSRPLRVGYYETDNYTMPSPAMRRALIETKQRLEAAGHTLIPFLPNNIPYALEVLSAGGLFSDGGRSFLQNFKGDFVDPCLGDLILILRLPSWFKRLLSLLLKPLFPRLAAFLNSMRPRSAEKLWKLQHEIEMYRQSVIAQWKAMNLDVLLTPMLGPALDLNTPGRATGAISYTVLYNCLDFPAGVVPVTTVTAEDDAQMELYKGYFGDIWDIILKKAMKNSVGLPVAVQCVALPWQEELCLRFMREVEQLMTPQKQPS

FAAH [2] = target: T1, FAAH; test: FAAH assay: inhibition of rat brain [3H]AEA hydrolysis; conditions: for FAAH inhibitory activity (in words): 0.5 μM [3H]AEA, rat brain homogenates
[3] = parameters: method as in PMID 12767601; conditions: cited from earlier work

SMILES: Cc1cccnc1NC(=O)[C@@H](C)c1ccc(CC(C)C)cc1 [(S)-IbuAM5]
FAAH inhibitory activity of (S)-enantiomer relative to (R)-enantiomer (FAAH [1]): 10 fold

SMILES: CC(C)Cc1ccc(C(C)C(=O)NCc2ccccc2Cl)cc1 (centres unmarked) [Compound 11, N-(2-Chlorobenzyl)-2–(4-isobutylphenyl)propanamide]
IC50 (FAAH [2]): 4.1 µM

SMILES: CC(C)Cc1ccc(C(C)C(=O)NCc2ccc(Cl)cc2Cl)cc1 (centres unmarked) [Compound 14, N-(2,4-Dichlorobenzyl)-2–(4-isobutylphenyl)propanamide]
IC50 (FAAH [2]): 21 µM

SMILES: Cc1cccnc1NC(=O)C(C)c1ccc(CC(C)C)cc1 (centres unmarked) [Ibu-AM5]
potency as reversible FAAH inhibitor relative to ibuprofen (FAAH [1]): two to three orders of magnitude more potent than ibuprofen
ulcerogenic potency relative to ibuprofen [3]: much lower ulcerogenic potency than ibuprofen

Next, values leading:

IC50 (FAAH [2]): 4.4 µM
SMILES: CC(C)Cc1ccc(C(C)C(=O)NCc2cc(Cl)ccc2Cl)cc1 (centres unmarked) [Compound 15, N-(2,5-Dichlorobenzyl)-2–(4-isobutylphenyl)propanamide]

melting point: 130 to 135 °C
FAAH inhibitory activity (in words) (FAAH [2]): complete loss of activity
SMILES: CC(C)Cc1ccc(C(C)C(=O)NCc2c(Cl)cccc2Cl)cc1 (centres unmarked) [Compound 16, N-(2,6-Dichlorobenzyl)-2–(4-isobutylphenyl)propanamide]

loss of FAAH inhibitory activity relative to amide 19 (FAAH [2]; 3,4-dichlorophenyl versus 3-chlorophenyl analogue): 10 fold
SMILES: CC(C)Cc1ccc(C(C)C(=O)N2CCN(c3ccc(Cl)c(Cl)c3)CC2)cc1 (centres unmarked) [Compound 21, 1–(4-(3,4-Dichlorophenyl)piperazin-1-yl)-2–(4-isobutylphenyl)propan-1-one]

IC50 (FAAH [2]): 17 µM
SMILES: CC(C)Cc1ccc(C(C)C(=O)N2CCN(c3ccc(F)cc3)CC2)cc1 (centres unmarked) [Compound 22, 1–(4-(4-Fluorophenyl)piperazin-1-yl)-2–(4-isobutylphenyl)propan-1-one]

FAAH inhibitory activity (in words) (FAAH [2]): loss of activity
SMILES: Cc1ccccc1N1CCN(C(=O)C(C)c2ccc(CC(C)C)cc2)CC1 (centres unmarked) [Compound 27, 2–(4-Isobutylphenyl)-1–(4-(o-tolyl)piperazin-1-yl)propan-1-one]
